Data from patent US20140287074A1, “Extracts of deschampsia antartica with antineoplastic activity” (Uxmal S.A., Chile, priority 2013, published 2014).

Tested on: LoVo colorectal cancer cells
Assay: In vitro growth (proliferation, viability) of LoVo colon cancer cells
Type: cell-based, human
Method: FIG. 4. Effects of fractions of Deschampsia antarctica in concentrations of 100 μg/ml on in vitro growth of colon cancer cells (HT29 and LoVo), hepatic cancer cells (Hep3B) and control cells (wi38). GCB1, GCB2 and GCB3 correspond to extraction of three different collections of Deschampsia antarctica plants for the Antarctic. The extracts were prepared with water, then dried and dissolved in methanol. Control contains no extract added and the methanol control is a control containing 5% methanol as was used to dissolve the dried aqueous extract.
FIG. 5. Effects of ethyl acetate (a and B) and methanol (c and d) extracts at to concentration of 75 ug/ml on LoVo colorectal cancer cells (a and c) and we38 human fetal fibroblast cells (b and d).
Its effect on WI38 (normal lung fibroblasts) was tested at the maximum concentration to determine specificity and toxicity.
The same extract was tested in WI 38 cells (normal lung fibroblasts).

## O=c1cc(-c2ccc(O)c(O)c2)oc2c([C@@H]3OC(CO)[C@@H](O)[C@H](O)C3O[C@H]3OC[C@H](O)[C@@H](O)C3O)c(O)cc(O)c12 (single isomer, unassigned; peak 2) [peak 2, orientin 2″-beta-arabinopyranoside]
Corresponds to 1.7 mM
  concentration at which inhibitory effect on cellular proliferation was observed: 1000 µg/mL
Tested at 0.017, 0.17 and 1.7 mM, FIG. 6
  concentration at which inhibitory effect on cellular proliferation was observed: 1.7 mM
